From ChEMBL document CHEMBL1133570, “Synthesis and in vitro and in vivo activity of (-)-(1R,5R,9R)- and (+)-(1S,5S,9S)-N-alkenyl-, -N-alkynyl-, and -N-cyanoalkyl-5, 9-dimethyl-2'-hydroxy-6,7-benzomorphan homologues” (J Med Chem, 2000)
Active and inactive are the calls of the source. Unless noted, the calls are words filed in the database; no cut-off is given here.

Assays:
[1] = target: Kappa-type opioid receptor (Mus musculus, UniProt P33534); assay: (§1) Ki value determined against Opioid receptor kappa 1 using [3H]U69, 593 at the Kd concentration 0.95 nM
[2] = tested on: Mus musculus; assay: (§2) Tail-flick vs. morphine ED80(morphine sulfate substituted completely) was studied to determine selective in vivo agonist and antagonist activity.;IA, Inactive less than 70% of mice affected at 30 mg/kg.; assay type: functional, organism-based; parameters: dose 30 mg/kg
[3] = target: Sigma 2 receptor; assay: Ki value determined against Sigma opioid receptor type 2 using [3H]DTG (5 nM) with 1 uM dextrallorphan to mask sigma-1 binding; parameters: species or system Mus musculus
[4] = target: Delta-type opioid receptor (Mus musculus, UniProt P32300); assay: Ki value determined against Opioid receptor delta 1 using [3H]DPDPE at the Kd concentration 2.1 nM
[5] = target: T1, Opioid receptor (Mus musculus) (UniProt P42866+P32300+P33534); assay: Hot plate test was carried out for mouse injected sc and the antinociceptive activity was determined from the response;IA, Inactive less than 70% of mice affected at 30 mg/kg.; assay type: functional, organism-based; parameters: dose 30 mg/kg
[6] = target: T1, Opioid receptor (Mus musculus); assay: Evaluated in vivo for the antinociceptive and opioid antagonist assays in ICR male mice, Tail-Flick agonist and antagonist tests was performed; IA, Inactive less than 70% of mice affected at 30 mg/kg.; assay type: functional, organism-based; parameters: dose 30 mg/kg
[7] = target: Mu-type opioid receptor (Mus musculus, UniProt P42866); assay: (§3) Ki value determined against Opioid receptor mu 1 using [3H]DAMGO at the Kd concentration 0.57 nM
[8] = target: T1, Opioid receptor (Mus musculus); assay: Using the PPQ (paraphenylquinone) assay selective opioid receptor agonist activity was established in mice; assay type: functional
[9] = target: Sigma non-opioid intracellular receptor 1 (Mus musculus, UniProt O55242); assay: Ki value determined against Sigma opioid receptor type 1 using [(+)-[3H]pentazocine at the Kd concentration 2nM
[10] = target: T1, Opioid receptor (Mus musculus); assay: Antinociceptive activity was determined in vivo in all opioid type tests; assay type: organism-based
[11] = target: T1, Opioid receptor (Mus musculus); conditions: Tail
Description: (§5) Narcotic antagonist activity in the mouse tail-flick versus morphine assay

[12] = target: Sigma non-opioid intracellular receptor 1 (Rattus norvegicus, UniProt Q9R0C9); assay: Ki value determined against Sigma opioid receptor type 1 using [(+)-[3H]pentazocine at the Kd concentration 2 nM.
[13] = target: Mu-type opioid receptor (Mus musculus) (UniProt P42866); assay: as §3
[14] = target: Kappa-type opioid receptor (Mus musculus) (UniProt P33534); assay: as §1
[15] = (§4) Tail-flick vs. morphine ED80(morphine sulfate substituted completely) was studied to determine selective in vivo agonist and antagonist activity.; assay type: functional
[16] = target: Delta-type opioid receptor (Homo sapiens) (UniProt P41143); assay: Antinociceptive activity was determined at Opioid receptor delta 1 versus ED80 of U69,593; assay type: functional
[17] = target: Delta-type opioid receptor (Homo sapiens) (UniProt P41143); assay: Antinociceptive activity was determined at Opioid receptor delta 1 versus ED80 of morphine; assay type: functional
[18] = target: Delta-type opioid receptor (Homo sapiens) (UniProt P41143); assay: Antinociceptive activity was determined at Opioid receptor delta 1 using DPDPE; assay type: functional
[19] = target: T1, Opioid receptor (Mus musculus); assay: Hot plate test was carried out for mouse injected sc and the antinociceptive activity was determined from the response; assay type: functional, organism-based
[20] = as §2; assay type: functional, organism-based; parameters: dose 30 mg/kg
[21] = target: T1, Opioid receptor (Mus musculus); assay: Evaluated in vivo for the antinociceptive and opioid antagonist assays in ICR male mice, Tail-Flick agonist and antagonist tests was performed; assay type: functional, organism-based
[22] = target: T1, Opioid receptor (Mus musculus)
Description: Antinociceptive activity was determined in vivo in all opioid type tests, expressed as AD50 administered subcutaneously

[23] = target: T1, Opioid receptor (Mus musculus); conditions: Tail; remark: listed apart in the source
Description: as §5

[24] = target: T1, Opioid receptor (Mus musculus); assay: Using the PPQ (paraphenylquinone) assay selective opioid receptor agonist activity was established in mice;IA, Inactive less than 70% of mice affected at 30 mg/kg.; assay type: functional, organism-based; parameters: dose 30 mg/kg
[25] = target: T1, Opioid receptor (Mus musculus); assay: as §4; assay type: functional, organism-based
[26] = target: Sigma 2 receptor; assay: Ki value determined against Sigma opioid receptor type 2 using [3H]DTG(5nM) with 1 uM dextrallorphan to mask sigma1 binding; parameters: species or system Mus musculus

Chain of Kappa-type opioid receptor (Mus musculus) (P33534 whole entry): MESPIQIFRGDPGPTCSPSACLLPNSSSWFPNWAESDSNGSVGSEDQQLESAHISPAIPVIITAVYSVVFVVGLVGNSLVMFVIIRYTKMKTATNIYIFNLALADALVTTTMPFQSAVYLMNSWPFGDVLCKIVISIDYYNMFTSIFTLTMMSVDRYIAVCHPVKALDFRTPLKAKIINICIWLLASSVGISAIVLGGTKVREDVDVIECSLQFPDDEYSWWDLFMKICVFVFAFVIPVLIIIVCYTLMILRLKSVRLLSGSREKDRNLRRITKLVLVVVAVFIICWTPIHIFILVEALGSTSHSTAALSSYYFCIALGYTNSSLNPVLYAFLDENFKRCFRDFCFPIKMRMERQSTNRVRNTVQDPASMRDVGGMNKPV
Chain of Kappa-type opioid receptor (P33534 whole entry): as above
Chain of Sigma non-opioid intracellular receptor 1 (Mus musculus, UniProt O55242) (O55242 whole entry): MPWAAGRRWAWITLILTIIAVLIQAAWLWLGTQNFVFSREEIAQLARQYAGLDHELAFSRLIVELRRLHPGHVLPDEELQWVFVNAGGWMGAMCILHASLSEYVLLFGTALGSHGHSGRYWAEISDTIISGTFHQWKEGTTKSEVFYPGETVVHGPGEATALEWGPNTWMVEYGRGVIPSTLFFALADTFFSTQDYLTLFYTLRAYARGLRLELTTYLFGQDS
Chain of Delta-type opioid receptor (Homo sapiens) (P41143 whole entry): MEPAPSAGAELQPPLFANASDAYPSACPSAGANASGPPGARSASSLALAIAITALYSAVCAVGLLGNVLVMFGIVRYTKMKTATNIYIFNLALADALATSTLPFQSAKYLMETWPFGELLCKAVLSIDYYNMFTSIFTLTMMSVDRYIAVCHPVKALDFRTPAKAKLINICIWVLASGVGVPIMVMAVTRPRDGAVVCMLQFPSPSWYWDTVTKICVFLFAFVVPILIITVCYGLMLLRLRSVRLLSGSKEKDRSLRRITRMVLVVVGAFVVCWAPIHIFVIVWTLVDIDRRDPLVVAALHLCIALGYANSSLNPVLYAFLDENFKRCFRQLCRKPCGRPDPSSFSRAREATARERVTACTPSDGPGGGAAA
Chain of Sigma non-opioid intracellular receptor 1 (Rattus norvegicus, UniProt Q9R0C9) (Q9R0C9 whole entry): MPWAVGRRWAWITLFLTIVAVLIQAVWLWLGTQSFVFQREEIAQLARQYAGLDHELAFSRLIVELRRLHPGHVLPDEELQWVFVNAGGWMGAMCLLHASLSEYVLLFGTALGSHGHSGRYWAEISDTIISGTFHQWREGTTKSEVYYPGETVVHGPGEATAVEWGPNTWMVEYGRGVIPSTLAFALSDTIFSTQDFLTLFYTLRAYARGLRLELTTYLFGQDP
Chain of Mu-type opioid receptor (P42866 whole entry): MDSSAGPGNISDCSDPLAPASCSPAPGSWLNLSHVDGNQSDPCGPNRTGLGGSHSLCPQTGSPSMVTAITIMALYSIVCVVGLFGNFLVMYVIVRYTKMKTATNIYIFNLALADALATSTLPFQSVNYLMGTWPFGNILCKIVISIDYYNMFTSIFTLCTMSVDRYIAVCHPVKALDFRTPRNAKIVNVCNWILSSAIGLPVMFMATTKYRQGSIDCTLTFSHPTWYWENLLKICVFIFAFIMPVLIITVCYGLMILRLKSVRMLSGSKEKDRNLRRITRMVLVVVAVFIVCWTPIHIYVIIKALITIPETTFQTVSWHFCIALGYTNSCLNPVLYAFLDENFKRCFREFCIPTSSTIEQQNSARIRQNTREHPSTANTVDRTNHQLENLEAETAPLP
Chain of Mu-type opioid receptor (Mus musculus) (P42866 whole entry): as above
T1 sequence (P32300 whole entry, looked up): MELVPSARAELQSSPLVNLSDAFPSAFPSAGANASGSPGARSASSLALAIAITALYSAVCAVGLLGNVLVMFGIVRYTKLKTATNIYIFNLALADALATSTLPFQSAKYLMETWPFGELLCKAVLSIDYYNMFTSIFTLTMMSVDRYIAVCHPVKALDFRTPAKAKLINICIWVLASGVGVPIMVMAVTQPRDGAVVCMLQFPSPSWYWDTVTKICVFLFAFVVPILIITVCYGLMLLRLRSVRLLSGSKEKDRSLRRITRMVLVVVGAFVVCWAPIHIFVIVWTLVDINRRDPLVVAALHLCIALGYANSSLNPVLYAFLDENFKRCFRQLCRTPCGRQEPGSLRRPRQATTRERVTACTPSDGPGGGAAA
T1 sequence (P33534 whole entry, looked up): as the sequence (P33534 whole entry) above
T1 sequence (P42866 whole entry, looked up): as the sequence (P42866 whole entry) above
Chain of Delta-type opioid receptor (P32300 whole entry): as the sequence (P32300 whole entry, looked up) above

| Structure (SMILES) | Ki [1] | Ki [3] | Ki [4] | Ki [7] | ED50 [8] | Ki [9] | Ki [12] | further results |
| --- | --- | --- | --- | --- | --- | --- | --- | --- |
| C[C@H]1C2Cc3ccc(O)cc3[C@@]1(C)CCN2CCCCCCC#N | 38 nM | 150 nM | 350 nM | 90 nM | 9 mg/kg | 80 nM |  | ED50 [2]: inactive; ED50 [5]: inactive; ED50 [6]: inactive |
| COC(=O)/C=C/C(=O)N[C@@H]1CC[C@@]2(O)[C@H]3Cc4ccc(O)c5c4[C@@]2(CCN3CC2CC2)[C@H]1O5 |  |  |  |  |  |  |  | AD50 [10]: 0.6 µg brain-1 |
| CC#CCN1CC[C@]2(C)c3cc(O)ccc3CC1[C@@H]2C (stereo in doubt; 26) [listing 1 of 2 here] |  |  |  |  |  |  |  | AD50 [11]: 6.7 mg/kg |
| CC1C2Cc3ccc(O)cc3[C@@]1(C)CCN2CCCCC#N (stereo partly drawn) | 1300 nM |  |  | 4800 nM |  |  | 36 nM |  |
| C=CCCCN1CC[C@]2(C)c3cc(O)ccc3CC1C2C (stereo partly drawn) | 400 nM |  |  |  |  |  | 2.1 nM | inhibition [13]: 20.5% |
| CC1C2Cc3ccc(O)cc3[C@@]1(C)CCN2CCCCCCC#N (stereo partly drawn) |  |  |  |  |  |  | 16 nM | inhibition [13]: 37%; inhibition [14]: 17.7% |
| C#CCCN1CC[C@]2(C)c3cc(O)ccc3CC1C2C (stereo partly drawn) |  |  |  |  |  |  | 110 nM |  |
| C#CCCCN1CC[C@]2(C)c3cc(O)ccc3CC1C2C (stereo partly drawn) |  |  |  |  |  |  | 18 nM |  |
| C#CCCCN1CC[C@]2(C)c3cc(O)ccc3CC1[C@@H]2C | 11 nM | 440 nM | 140 nM | 18 nM | 12 mg/kg | 200 nM |  | ED50 [15]: 2 mg/kg; AD50 [16]: 1.2 mg/kg; AD50 [17]: 20 mg/kg; ED50 [5]: inactive; AD50 [18]: 0.05 mg/kg; ED50 [6]: inactive |
| CC1C2Cc3ccc(O)cc3[C@@]1(C)CCN2CCCC#N (stereo partly drawn) | 240 nM |  |  |  |  |  | 20 nM | inhibition [13]: 9% |
| C=CCCCN1CC[C@]2(C)c3cc(O)ccc3CC1[C@@H]2C | 5.9 nM | 180 nM | 60 nM | 15 nM | 1.4 mg/kg | 50 nM |  | ED50 [15]: 6 mg/kg; ED50 [5]: inactive; ED50 [6]: inactive |
| C#CCCN1CC[C@]2(C)c3cc(O)ccc3CC1[C@@H]2C | 1.4 nM | 2200 nM | 10 nM | 4.6 nM | 0.04 mg/kg | 5900 nM |  | ED50 [19]: 0.1 mg/kg; ED50 [20]: inactive; ED50 [21]: 0.05 mg/kg |
| C[C@H]1C2Cc3ccc(O)cc3[C@@]1(C)CCN2CCC#N | 0.4 nM | 51000 nM | 9.8 nM | 4.2 nM | 0.05 mg/kg | 9800 nM |  | ED50 [19]: 0.1 mg/kg; ED50 [21]: 0.3 mg/kg |
| C=CCN1CC[C@]2(C)c3cc(O)ccc3CC1[C@@H]2C | 0.3 nM | 3200 nM | 5.5 nM | 0.9 nM | 0.1 mg/kg | 11000 nM |  | ED50 [15]: 0.2 mg/kg; ED50 [5]: inactive; ED50 [6]: inactive |
| CC#CCN1CC[C@]2(C)c3cc(O)ccc3CC1[C@@H]2C (stereo in doubt; 12) [listing 1 of 2 here] | 3.9 nM | 4400 nM | 60 nM | 0.5 nM |  | 9800 nM |  | ED50 [15]: 0.3 mg/kg |
| Oc1ccc2c3c1O[C@H]1c4[nH]c5c(c4C[C@@]4(O)[C@@H](C2)N(CC2CC2)CC[C@]314)C[C@@]1(O)[C@H]2Cc3ccc(O)c4c3[C@@]1(CCN2CC1CC1)[C@H]5O4 |  |  |  |  |  |  |  | AD50 [22]: 0.3 mg/kg |

| Structure (SMILES) | Ki [1] | Ki [3] | Ki [4] | Ki [7] | ED50 [8] | Ki [9] | Ki [12] | further results |
| --- | --- | --- | --- | --- | --- | --- | --- | --- |
| C[C@H]1C2Cc3ccc(O)cc3[C@@]1(C)CCN2CCCC#N | 0.4 nM | 8400 nM | 23 nM | 5.8 nM | 0.01 mg/kg | 1700 nM |  | ED50 [19]: 1 mg/kg; ED50 [21]: 0.4 mg/kg |
| C=CCCCCN1CC[C@]2(C)c3cc(O)ccc3CC1C2C (stereo partly drawn) |  |  |  | 980 nM |  |  | 1.1 nM |  |
| C=CCN1CC[C@]2(C)c3cc(O)ccc3CC1C2C (stereo partly drawn) |  |  |  |  |  |  | 300 nM | inhibition [13]: 28.5%; AD50 [23]: 13.2 mg/kg; inhibition [14]: 31% |
| CC#CCN1CC[C@]2(C)c3cc(O)ccc3CC1[C@@H]2C (stereo in doubt; 12) [listing 2 of 2 here] |  |  |  |  | 0.1 mg/kg |  |  | ED50 [5]: inactive; ED50 [6]: inactive |
| CC1C2Cc3ccc(O)cc3[C@@]1(C)CCN2CCC#N (stereo partly drawn) | 600 nM |  |  |  |  |  | 250 nM | inhibition [13]: 11.6% |
| C[C@H]1C2Cc3ccc(O)cc3[C@@]1(C)CCN2CCCCCC#N | 11 nM | 380 nM | 220 nM | 15 nM |  | 640 nM |  | ED50 [24]: inactive; ED50 [25]: 10 mg/kg; ED50 [5]: inactive; ED50 [6]: inactive |
| CC1C2Cc3ccc(O)cc3[C@@]1(C)CCN2CC#N (stereo partly drawn) |  |  |  |  |  |  | 11000 nM | inhibition [13]: 18.6%; inhibition [14]: 20.4% |
| CC1C2Cc3ccc(O)cc3[C@@]1(C)CCN2CCCCCC#N (stereo partly drawn) | 500 nM |  |  |  |  |  | 33 nM | inhibition [13]: 12.4% |
| CC#CCN1CC[C@]2(C)c3cc(O)ccc3CC1[C@@H]2C (stereo in doubt; 26) [listing 2 of 2 here] |  |  |  |  |  | 160 nM |  | Ki [26]: 12000 nM |
| C=CCCCCN1CC[C@]2(C)c3cc(O)ccc3CC1[C@@H]2C | 5.8 nM | 80 nM | 56 nM | 10 nM | 0.8 mg/kg | 22 nM |  | ED50 [19]: 0.6 mg/kg; ED50 [20]: inactive; ED50 [21]: 0.3 mg/kg |
| C[C@H]1C2Cc3ccc(O)cc3[C@@]1(C)CCN2CC#N | 70 nM | 19000 nM | 590 nM | 100 nM | 1.5 mg/kg | 13000 nM |  | ED50 [19]: 9 mg/kg; ED50 [21]: 12 mg/kg |
| C=CCCN1CC[C@]2(C)c3cc(O)ccc3CC1C2C (stereo partly drawn) |  |  |  |  |  |  | 15 nM | inhibition [13]: 41%; inhibition [14]: 35.5% |
| C=CCCN1CC[C@]2(C)c3cc(O)ccc3CC1[C@@H]2C | 1.3 nM | 620 nM | 21 nM | 2.1 nM | 0.3 mg/kg | 1600 nM |  | ED50 [19]: 0.8 mg/kg; ED50 [25]: 4 mg/kg; ED50 [21]: 0.05 mg/kg |
| Oc1ccc2c3c1O[C@H]1c4[nH]c5ccccc5c4C[C@@]4(O)[C@@H](C2)N(CC2CC2)CC[C@]314 |  |  |  |  |  |  |  | AD50 [22]: 3.1 mg/kg |
| C[C@H]1C2Cc3ccc(O)cc3[C@@]1(C)CCN2CCCCC#N | 6.9 nM | 2800 nM | 160 nM | 18 nM | 3 mg/kg | 490 nM |  | ED50 [21]: 15 mg/kg |
